CC(C)C(=O)Nc1ccc([N+](=O)[O-])c(C(F)(F)F)c1
solubility (mole fraction)
Conditions	278.15 K	283.15 K	288.15 K	293.15 K	298.15 K	303.15 K	308.15 K	313.15 K	318.15 K	323.15 K
in 1,4-dioxane	–	0.12	0.139	0.16	0.184	0.21	0.239	0.272	0.307	0.338
in acetonitrile	0.0592	0.0749	0.0939	0.115	0.144	0.177	0.217	0.262	0.314	0.375
in ethanol	0.0365	0.0435	0.0522	0.0617	0.0728	0.0858	0.1	0.116	0.136	0.156
in isopropanol	0.0583	0.0664	0.0756	0.0861	0.0979	0.11	0.125	0.14	0.155	0.176
in water	2.41e-07	3.17e-07	4.02e-07	5.23e-07	6.68e-07	8.38e-07	1.07e-06	1.32e-06	1.65e-06	2.06e-06

Reference: BigSolDB 2.1
